This experiment can be described thus: Antagonist activity at CRTH2 receptor in human whole blood assessed as inhibition of PGD2-induced eosinophil shape change incubated for 20 mins prior to PGD2-challenge measured after 10 mins by flow cytometry. Background: In flow cytometry, cells or beads pass a laser one at a time.

Usually IC50 stands for the concentration that gives 50% inhibition. For `CCCCC(=O)N(Cc1ccc2c(c1)OCCO2)c1cc(F)cc(-c2nnn[nH]2)c1`, the IC50 worked out at 40 nM.

For the origin of these results see BindingDB's records for doi:10.1021/ml200223s (2011).
